Consider one compound from patent publication US7642400B2, “Protein kinase C iota” (Mayo Foundation for Medical Education and Research, priority 2004, dated 2010).

The test system of this assay is Rac1 activity in A549 cells. Put plainly: Rac1 activity assay (affinity isolation of GTP-bound Rac1) in A549 cells. Type of assay: cell-based, human. As to the method:
Rac 1 Activity Assays: Rac1 activity in A549 and H1299 cell transfectants was assessed by affinity isolation of GTP-bound Rac1 using binding domains of PAK as described previously (Sander et al., J. Cell Biol., 143(5):1385-98 (1998)). Briefly, cells were lysed in lysis buffer (50 mM Tris-HCl pH 7.5, 150 mM NaCl, 20 mM MgCl2, 5 mM EGTA, 10% glycerol, 1% Triton X-100, 1% NP-40, 25 mM NaF, 1 mM phenylmethylsulfonyl fluoride, 1 mM sodium orthovanadate, 10 μg/ml leupeptin, 10 μg/ml aprotinin) at 4° C. for 5 min. Cellular debris was removed by centrifugation at 20,000×g for 5 min, and supernatants were transferred to new tubes containing 20 μl of GST-p21-binding domain of PAK1 (PAK1-PBD) coupled to agarose beads (Upstate). An aliquot of each supernatant was reserved to determine total Rac1 and actin expression by immunoblot analysis. Following a 30-minute incubation at 4° C., the agarose beads were collected by centrifugation and washed three times in wash buffer (50 mM Tris-HCl pH 7.5, 150 mM NaCl, 20 mM MgCl2, 5 mM EGTA, 10% glycerol, 1% Triton X-100, 1% NP-40, 25 mM NaF, 1 mM phenylmethylsulfonyl fluoride, 1 mM sodium orthovanadate, 10 μg/ml leupeptin, 10 μg/ml aprotinin). Bound polypeptides were solubilized by the addition of 30 μl of SDS sample buffer, resolved by SDS-PAGE, and subjected to immunoblot analysis for Rac1. An equivalent aliquot of the total cell lysate was subjected to immunoblot analysis to determine total Rac1 expression.
Rac 1 Activity Assays: A549 cells were incubated with the indicated concentration of ATG for one hour prior to analysis. Rac1 activity in A549 cells was assessed by affinity isolation of GTP-bound Rac1 using binding domains of PAK as described elsewhere (Sander et al., J. Cell Biol., 143:1385-98 (1998)). Briefly, cells were lysed in lysis buffer (50 mM Tris-HCl pH 7.5, 150 mM NaCl, 20 mM MgCl2, 5 mM EGTA, 10% glycerol, 1% Triton X-100, 1% NP-40, 25 mM NaF, 1 mM phenylmethylsulfonyl fluoride, 1 mM sodium orthovanadate, 10 μg/ml leupeptin, and 10 μg/ml aprotinin) at 4° C. for 5 min. […]

Turning to `OC[C@H]1O[C@H]([S-])[C@H](O)[C@@H](O)[C@@H]1O.[Au+]` [Aurothioglucose], the Rac1 activity entry (A549 cells incubated with ATG for one hour, FIG. 19) is given as “decreased Rac1 activity”. The “dose dependence of Rac1 activity” value (A549 cells, less Rac1 activity as ATG concentrations increased) was “dose-dependent effect on Rac1 activity”.
